Source: patent publication US20190192699A1, “NUCLEAR IMAGING AND RADIOTHERAPEUTICS AGENTS TARGETING CARBONIC ANHYDRASE IX AND USES THEREOF” (THE JOHNS HOPKINS UNIVERSITY, priority 2016, published 2019)
Entries after “also recorded” stand apart in the source; their conditions may differ.

Legend:
[1] = target: CAIX (Homo sapiens, UniProt Q16790); test: In vitro uptake of [177Lu]XYIMSR-01; type: cell-based; set-up: host or cells: ccRCC tumours in patients
[2] = test system: SK-RC-52 xenografts; test: Radio-therapy of [177Lu]XYIMSR-01, tumor growth; type: in vivo, mice; conditions: 11.1 MBq (300 μCi) and 18.5 MBq (500 μCi) i.v., n=4
Experimental: (§1) Cell Lines and Mouse Models. Animal experiments were performed in accordance with protocols approved by the Johns Hopkins Animal Care and Use Committee (ACUC). Six-week-old female NOD/SCID mice were purchased from the Animal Resource Core of the Sidney Kimmel Comprehensive Cancer Center of Johns Hopkins and were subcutaneously injected in the lower left flank or upper right flank with 1×10^6 SK-RC-52 cells in RPMI 1640 GlutaMAX™ media (Life Technologies, Frederick, Md.) supplemented with 1% fetal bovine serum (FBS). Mice were monitored for tumor size and used for SPECT/CT imaging when the size of the tumor reached 100 mm^3.
Radio-therapy of [^177Lu]XYIMSR-01. Mice bearing SK-RC-52 xenografts at lower left flank were injected intravenously with PBS, 11.1 MBq (300 μCi) and 18.5 MBq (500 μCi) of [^177Lu]XYIMSR-01 in 200 μL of PBS (n=4). Size of the tumors was measured twice a week after the injection. […] The P-values were 0.042 and 0.031 for the 11.1 and […] doses, respectively.

[3] = test system: CAIX-expressing SK-RC-52 tumors; test: SPECT/CT imaging of [177Lu]XYIMSR-01; type: in vivo, mice; conditions: intravenous
Experimental: as §1
SPECT/CT imaging of [^177Lu]XYIMSR-01. Mice were injected with 1.7 mCi of [^177Lu]XYIMSR-01 in 250 uL of PBS (pH7.0) intravenously, anesthetized under 3% isofluorane prior to being placed on the scanner bed and kept warm with an external light source while being scanned. Isofluorane levels were decreased to 1% throughout the scanning process in order to ensure mouse survival. Imaging of mice was then carried out using a CT-equipped Gamma Medica-Ideas SPECT scanner (Northridge, Calif.). A CT scan was performed at the end of each SPECT scan for anatomical co-registration. CT and SPECT scans were performed at 1, 4, 8, 24, and 48 hrs post injection of the [^177Lu]XYIMSR-01. Obtained data sets were subsequently reconstructed using the provided Gamma Medica-Ideas software. […]

[4] = test system: SK-RC-52 xenografts; test: Biodistribution of [111In]XYIMSR-01 and [177Lu]XYIMSR-01; type: in vivo, mice
Experimental: as §1
Biodistribution of [^111In]XYIMSR-01 and [^177Lu]XYIMSR-01. Mice bearing SK-RC-52 xenografts at lower left flank were injected intravenously with 740 kBq (20 μCi) of [^111In]XYIMSR-01, or [^177Lu]XYIMSR-01 in 200 μL of PBS. For competitive blocking, same tumor bearing mice were injected with 740 kBq (20 μCi) of [^111In]XYIMSR-01 and 200 nmole of 1 in 200 μL of PBS. At 1 h, 4 h, 8 h, 24 h and 48 h post-injection, mice were sacrificed by cervical dislocation and the blood was immediately collected by cardiac puncture. Heart, lungs, pancreas, spleen, fat, brain, muscle, small intestines, liver, stomach, kidney, urinary bladder, and tumor were collected. Each organ was weighed and the tissue radioactivity was measured with an automated gamma counter (1282 Compugamma CS, Pharmacia/LKBNuclear, Inc., Mt. Waverly, Vic. Australia). The percentage of injected dose per gram of tissue (% ID/g) was calculated by comparison with samples of a standard dilution of the initial dose. All measurements were corrected for radioactive decay.
Data were expressed as mean±standard deviation (SD). Prism software (GraphPAD, San Diego, Calif.) was used to determine statistical significance. Statistical significance was calculated using a paired t test. P-values […] were considered significant.

[5] = 24 hr + Block (200 nmole of 1 co-injected)

CC(CCC(=O)N[C@@H](CC(=O)N[C@@H](CC(=O)N[C@@H](CCCCn1cc(CCCC(=O)Nc2nnc(S(N)(=O)=O)s2)nn1)C(=O)NCCOCCOCCNC(=O)CN1CCN(CC(=O)[O-])CCN(CC(=O)[O-])CCN(CC(=O)[O-])CC1)C(=O)O)C(=O)O)(c1ccc(O)cc1)c1ccc(O)cc1.[177Lu+3] [[^177Lu]XYIMSR-01]
uptake in vitro [1]: CAIX specific uptake in vitro | tumor growth compared with control non-treated mice [2]: Delays in tumor growth; also recorded: significant therapeutic effect in controlling tumor growth | SPECT/CT tumor imaging finding [3]: radiotracer uptake in tumor as early as 1 h post-injection; also recorded: tumor visualization by 1 h post-injection | Biodistribution: Bladder ([4]; 1 hr post-injection): 26.55 ± 11.08 % ID/g | Biodistribution: Blood ([4]; 1 hr post-injection): 0.55 ± 0.06 % ID/g | Biodistribution: Brain ([4]; 1 hr post-injection): 0.49 ± 0.08 % ID/g | Biodistribution: Fat ([4]; 1 hr post-injection): 1.07 ± 0.58 % ID/g | Biodistribution: Heart ([4]; 1 hr post-injection): 3.59 ± 0.73 % ID/g | Biodistribution: Kidney ([4]; 1 hr post-injection): 40.77 ± 6.68 % ID/g | Biodistribution: Liver ([4]; 1 hr post-injection): 4.15 ± 0.39 % ID/g | Biodistribution: Lung ([4]; 1 hr post-injection): 23.72 ± 6.49 % ID/g | Biodistribution: Muscle ([4]; 1 hr post-injection): 1.42 ± 0.40 % ID/g | Biodistribution: Pancreas ([4]; 1 hr post-injection): 2.03 ± 0.25 % ID/g | Biodistribution: Small intestine ([4]; 1 hr post-injection): 6.11 ± 0.68 % ID/g | Biodistribution: Spleen ([4]; 1 hr post-injection): 0.29 ± 0.07 % ID/g | Biodistribution: Stomach ([4]; 1 hr post-injection): 12.20 ± 1.66 % ID/g | Biodistribution: Tumor ([4]; 1 hr post-injection): 26.91 ± 6.06 % ID/g | Tumor/Blood ratio ([4]; 1 hr post-injection): 47.9 ± 13.4 | Tumor/Kidney ratio ([4]; 1 hr post-injection): 0.6 ± 0.2 | Tumor/Muscle ratio ([4]; 1 hr post-injection): 18.8 ± 5.0 | Biodistribution: Bladder ([4]; 4 hr post-injection): 6.60 ± 3.66 % ID/g | Biodistribution: Blood ([4]; 4 hr post-injection): 0.18 ± 0.02 % ID/g | Biodistribution: Brain ([4]; 4 hr post-injection): 0.33 ± 0.04 % ID/g | Biodistribution: Fat ([4]; 4 hr post-injection): 0.56 ± 0.14 % ID/g | Biodistribution: Heart ([4]; 4 hr post-injection): 1.52 ± 0.54 % ID/g | Biodistribution: Kidney ([4]; 4 hr post-injection): 19.17 ± 2.82 % ID/g | Biodistribution: Liver ([4]; 4 hr post-injection): 1.79 ± 0.44 % ID/g | Biodistribution: Lung ([4]; 4 hr post-injection): 10.35 ± 1.86 % ID/g | Biodistribution: Muscle ([4]; 4 hr post-injection): 0.65 ± 0.19 % ID/g | Biodistribution: Pancreas ([4]; 4 hr post-injection): 0.99 ± 0.19 % ID/g | Biodistribution: Small intestine ([4]; 4 hr post-injection): 2.64 ± 0.17 % ID/g | Biodistribution: Spleen ([4]; 4 hr post-injection): 0.15 ± 0.03 % ID/g | Biodistribution: Stomach ([4]; 4 hr post-injection): 6.06 ± 1.57 % ID/g | Biodistribution: Tumor ([4]; 4 hr post-injection): 26.28 ± 4.25 % ID/g | Tumor/Blood ratio ([4]; 4 hr post-injection): 150.3 ± 34.6 | Tumor/Kidney ratio ([4]; 4 hr post-injection): 1.4 ± 0.4 | Tumor/Muscle ratio ([4]; 4 hr post-injection): 43.7 ± 16.8 | Biodistribution: Bladder ([4]; 8 hr post-injection): 6.00 ± 3.52 % ID/g | Biodistribution: Blood ([4]; 8 hr post-injection): 0.16 ± 0.05 % ID/g | Biodistribution: Brain ([4]; 8 hr post-injection): 0.44 ± 0.08 % ID/g | Biodistribution: Fat ([4]; 8 hr post-injection): 0.46 ± 0.17 % ID/g | Biodistribution: Heart ([4]; 8 hr post-injection): 1.49 ± 0.59 % ID/g | Biodistribution: Kidney ([4]; 8 hr post-injection): 18.99 ± 6.14 % ID/g | Biodistribution: Liver ([4]; 8 hr post-injection): 1.87 ± 0.77 % ID/g | Biodistribution: Lung ([4]; 8 hr post-injection): 8.87 ± 3.30 % ID/g | Biodistribution: Muscle ([4]; 8 hr post-injection): 0.47 ± 0.18 % ID/g | Biodistribution: Pancreas ([4]; 8 hr post-injection): 1.03 ± 0.50 % ID/g | Biodistribution: Small intestine ([4]; 8 hr post-injection): 3.67 ± 0.93 % ID/g | Biodistribution: Spleen ([4]; 8 hr post-injection): 0.29 ± 0.05 % ID/g | Biodistribution: Stomach ([4]; 8 hr post-injection): 6.15 ± 2.65 % ID/g | Biodistribution: Tumor ([4]; 8 hr post-injection): 27.48 ± 4.32 % ID/g | Tumor/Blood ratio ([4]; 8 hr post-injection): 178.6 ± 36.6 | Tumor/Kidney ratio ([4]; 8 hr post-injection): 1.5 ± 0.3 | Tumor/Muscle ratio ([4]; 8 hr post-injection): 65.0 ± 19.0 | Biodistribution: Bladder [4, 5]: 0.73 ± 0.55 % ID/g | Biodistribution: Blood [4, 5]: 0.04 ± 0.02 % ID/g | Biodistribution: Brain [4, 5]: 0.04 ± 0.01 % ID/g | Biodistribution: Fat [4, 5]: 0.03 ± 0.03 % ID/g | Biodistribution: Heart [4, 5]: 0.08 ± 0.04 % ID/g | Biodistribution: Kidney [4, 5]: 1.54 ± 1.44 % ID/g | Biodistribution: Liver [4, 5]: 0.46 ± 0.34 % ID/g
